Test results published in patent EP2077260B1, “AMIDE COMPOUND OR SALT THEREOF, AND BIOFILM FORMATION INHIBITOR, BIOFILM REMOVER AND BACTERICIDE EACH USING THE AMIDE COMPOUND OR SALT THEREOF” (The University of Tokyo, priority 2006, dated 2008).
Structures can show the parent of a compound that is named as a salt. Where two headings read alike, the source gives them in different places.

Tests used:
Type in all cases: cell-based
[1] = tested on: Porphyromonas gingivalis 381-strain (clinical strain); test: Evaluation test for biofilm formation inhibition effect against periodontitis pathogenic bacteria (flow cell system, HA disks, turbidity); settings: 100µM, 14 days
Experimental: As with Experiment Example 1, using the flow cell system of FIG. 1, an inhibitory effect against biofilm formation by periodontitis pathogenic bacteria was evaluated for each of the amide compounds produced in Production Examples 1, 3, 5, and 6 (Compounds 1a-1, 1b-1, 1c-1, 1c-2).
Periodontitis pathogenic bacteria Porphyromonas gingivalis 381-strain (clinical strain) was used..
A GAM culture medium containing hemin 5µg/L and menadione 1µg/L was used.
The 381-strain was inoculated in the GAM culture medium, and cultivated until stationary phase (OD550=1.8). Then the culture medium was diluted 20-fold by a fresh GAM culture medium containing the above-mentioned substances.
The test liquid was prepared by dissolving 100µM of each of the Compounds 1a-1, 1b-1, 1c-1, or 1c-2 according to Production Examples 1, 3, 5 and 6 and 100µM of Comparative Compounds 1 and 2 as comparative examples in dimethyl sulfoxide (DMSO), and supplying the resulting DMSO solutions to the above-mentioned bacterial suspensions so that the concentration of each compound becomes 0.1%(v/v).
A DMSO not containing the compound was used as a control test liquid.
The glass cell (4) of the flow cell system (see FIG. 1) was replaced with a stainless cell (3 x 7 x 120mm), and 10 hydroxyapatite (HA) disks (6mm in diameter, 1mm in thickness) were placed in the cell. The HA disks had been subjected to salivary treatment overnight. Each of the test liquids and control test liquids was circulated in the system at a flow rate of 8mL/min for 14 days, Note that the test liquids and the control test liquids were replaced with fresh liquids every two days.
After the cultivation, the HA disks were dipped in 300µL of sterile distilled water, and treated by supersonic wave for 30 minutes at 4°C, The biofilms formed in the HA disks were peeled off and suspended in distilled water. Then, 100µL of the suspension liquid was measured for the turbidity with an absorptiometer (C07500 colorimeter, product of Funakoshi) (measurement wavelength = 550 nm).
A mean OD was found based on the resulting OD values, excluding the minimum and maximum values, Also, a mean value of the turbidities for the Control Test Liquids was found in the same manner as the control mean OD value. A biofilm formation inhibition rate (Inhibition Rate) was found by the following formula. Biofilm Formation Inhibition Rate (%) = […] [formula]

[2] = tested on: Escherichia coli ATCC 25922; test: Evaluation test for disinfecting effect, broth dilution method CLSI(M7-A7)2006; settings: ATCC25922, 18 h
Excerpt: (§1) The following test compounds were examined for the disinfecting activities against Pseudomonas aeruginosa, E.. Coli and staphylococcus aureus, according to a broth dilution method of "CLSI(M7-A7)2006" (Clinical and Laboratory Standards Institute, M7-A7, Methods for Dilution Antimicrobial Susceptibility Tests for Bacteria That Grow Aerobically; Approved Standard-Seventh Edition, 2006),
(§2) • Pseudomonas aeruginosa PAO1 • Pseudomonas aeruginosa ATCC 27853 • Escherichia coli ATCC 25922 • Staphylococcus aureus ATCC 29213 • Staphylococcus aureus Methicillin resistant (MRSA) ATCC 43300
(§3) Each of above-mentioned bacteria was inoculated in a TSB culture medium (Bacto TSB Broth, product of BD) for overnight cultivation at 37°C. The culture solution was applied to a TSB agar plate for about a 20-hour cultivation to form colonies. Three to five colonies were taken from the agar plate, and an average colony of them was inoculated in a 4mL TSB culture medium.. The colony was cultivated at 35°C until the number of microorganisms became 1 × 10^8 to 2 x 10^8 CFU/mL. The number of microorganisms with time was found by measuring changes in absorbency at 590nm of culture solution with time. When the turbidity became equivalent to 0.5 McFarland standard, it was determined that the number of microorganisms reached the target level = 1 × 10^8 to 2 × 10^8 CFU/mL.
(§4) The bacillus culture solution thus obtained was diluted 10-fold within 15 minutes, and a 5µL portion was inoculated in each well of an evaluation 96-well microplate. This 96-well microplate was a sterilized 96-well microplate with U-shaped bottoms (Falcon 35-3918: product of BD), and each well was filled with a 100µL portion of MH culture medium (BBL MH Broth: product of BD). Within 15 minutes after inoculation of the bacillus culture solutions, the test compounds were supplied to the well in a manner of 2-fold graded dilution. The cultivation was then carried out at 37°C for 18 hours.
(§5) The MIC was determined as follows. "S (susceptible)" indicates a concentration which caused 80% or more reduction in the diameter of the aggregation deposited in the bottom of the well, compared to when the test liquid is not used. "R (Resistant)" indicates a concentration that caused less than 80% reduction in diameter. The reduction was measured visually.. "I(Intermediate)" indicates a concentration that cannot be measured visually

[3] = tested on: Pseudomonas aeruginosa ATCC 27853; test: as above; settings: ATCC27853, 18 h
Excerpt: as §1, §2, §3, §4, §5

[4] = tested on: Pseudomonas aeruginosa PAO1; test: as above; settings: PAO1, 18 h
Excerpt: as §1, §2, §3, §4, §5

[5] = tested on: Staphylococcus aureus ATCC 29213; test: as above; settings: ATCC29213, 18 h
Excerpt: as §1, §2, §3, §4, §5

[6] = tested on: Staphylococcus aureus Methicillin resistant (MRSA) ATCC 43300; test: as above; settings: 18 h
Excerpt: as §1, §2, §3, §4, §5

| SMILES | Mean OD Value ([1]; turbidity at 550 nm of biofilm peeled off HA disks) | inhibition at 100 µM ([1]; Porphyromonas gingivalis, 336 h, relative to control test liquid (Mean Comparison OD Value), read-out: Biofilm Formation Inhibition Rate(%)) | MIC ([2]; read-out: MIC (µg/mL) I) | MIC ([2]; read-out: MIC (µg/mL) R) | MIC ([2]; read-out: MIC (µg/mL) S) | MIC ([3]; read-out: MIC (µg/mL) I) | MIC ([3]; read-out: MIC (µg/mL) R) | MIC ([3]; read-out: MIC (µg/mL) S) | MIC ([4]; read-out: MIC (µg/mL) I) | MIC ([4]; read-out: MIC (µg/mL) R) | MIC ([4]; read-out: MIC (µg/mL) S) | MIC ([5]; read-out: MIC (µg/mL) I) | MIC ([5]; read-out: MIC (µg/mL) R) | MIC ([5]; read-out: MIC (µg/mL) S) | MIC ([6]; read-out: MIC (µg/mL) I) | MIC ([6]; read-out: MIC (µg/mL) R) | MIC ([6]; read-out: MIC (µg/mL) S) |
| --- | --- | --- | --- | --- | --- | --- | --- | --- | --- | --- | --- | --- | --- | --- | --- | --- | --- |
| CCCCCCCCCC(O)CC(=O)NN1CCCC1 (stereo not drawn) [Compound 1c-2, N-(pyrrolidin-1-yl)-3-hydroxy dodecanoyl amide] | 0.041 | 87.8% | – | – | – | – | – | – | – | – | – | – | – | – | – | – | – |
| CCCCCCCCCCCC(=O)NC1CCNC1 (stereo not drawn) [Hydrochloride salt of Compound 1a-1, N-(pyrrolidin-3-yl) dodecanoyl amide] | – | – | 8 µg/mL | ≤ 4 µg/mL | ≥ 16 µg/mL | 64 µg/mL | ≤ 32 µg/mL | ≥ 128 µg/mL | 64 µg/mL | ≤ 32 µg/mL | ≥ 128 µg/mL | 8 µg/mL | ≤ 4 µg/mL | ≥ 16 µg/mL | 8 µg/mL | ≤ 4 µg/mL | ≥ 16 µg/mL |
| CCCCCCCCCC(=O)NC1CCNC1 (stereo not drawn) [Hydrochloride salt of Compound 1a-2, N-(pyrrolidin-3-yl) decanoyl amide] | – | – | – | ≤ 128 µg/mL | ≥ 256 µg/mL | – | ≤ 512 µg/mL | ≥ 1020 µg/mL | – | ≤ 512 µg/mL | ≥ 1020 µg/mL | – | ≤ 128 µg/mL | ≥ 256 µg/mL | – | ≤ 128 µg/mL | ≥ 256 µg/mL |
| CCCCCCCCCCCC(=O)NC1CCNCC1 [Hydrochloride salt of Compound 1b-1, N-(piperidin-4-yl) dodecanoyl amide] | – | – | – | ≤ 8 µg/mL | ≥ 16 µg/mL | 64 µg/mL | ≤ 32 µg/mL | ≥ 128 µg/mL | 64 µg/mL | ≤ 32 µg/mL | ≥ 128 µg/mL | 8 µg/mL | ≤ 4 µg/mL | ≥ 16 µg/mL | 8 µg/mL | ≤ 4 µg/mL | ≥ 16 µg/mL |
| CCCCCCCCCC(=O)NC1CCNCC1 [Hydrochloride salt of Compound 1b-2, N-(piperidin-4-yl) decanoyl amide] | – | – | – | ≤ 128 µg/mL | ≥ 256 µg/mL | – | ≤ 512 µg/mL | ≥ 1020 µg/mL | – | ≤ 512 µg/mL | ≥ 1020 µg/mL | – | ≤ 128 µg/mL | ≥ 256 µg/mL | – | ≤ 128 µg/mL | ≥ 256 µg/mL |
